Experimental findings from ChEMBL document CHEMBL1201862, “PubChem BioAssay data set” (2004) are described below.

Molecules are shown by their SMILES.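 Growth conditions: 96-well plates. Treatment: test compound, 48 hours, 5 concentrations. Analysis: linear interpolation between bracketing concentrations; unreached endpoints set to highest concentration. Here, GI50 denotes the concentration required for 50% inhibition of growth.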 Active and inactive are the calls of the source. Rule as the data show it: active = GI50 up to about 1.1 µM and inactive = higher.

Some test systems named below: SK-MEL-2; MDA-N; IGROV-1; UACC-62; SN12C; ACHN; Malme-3M; BT-549; HCC 2998; SR; UO-31; NCI-H460; 786-0; MOLT-4; SNB-19; NCI-H226; HCT-116; EKVX; SK-OV-3; T47D.
Common to all, as to assay: NCI tumour cell line growth inhibition, 48 h

Consider `C=CC(C)(C)c1c(OC)oc2ccc(OC)c(C)c2c1=O`, for which the GI50 with SK-MEL-2, in the assay with MDA-N, in the assay with IGROV-1, with UACC-62, in the assay with SN12C and in the assay with ACHN was > 100 µM (inactive) in each case. The GI50 was > 100 µM (inactive) with Malme-3M; 90.2 µM (inactive) in the assay with BT-549; > 100 µM (inactive) in the assay with HCC 2998; 84.1 µM (inactive) in the assay with SR; > 100 µM (inactive) with UO-31; > 100 µM (inactive) in the assay on NCI-H460. The GI50 in the assay with 786-0 was > 100 µM (inactive); with MOLT-4, 49.5 µM (inactive); in the assay with SNB-19, > 100 µM (inactive); with NCI-H226 it was > 100 µM (inactive); in the assay on HCT-116 it was 89.7 µM (inactive); in the assay on EKVX it was > 100 µM (inactive). Also, the GI50 with SK-OV-3 was > 100 µM (inactive); with T47D, 56.4 µM (inactive).

Turning to `CC(=O)Oc1ccc2c(c1)c1c(OC(C)=O)c3ccccc3c(OC(C)=O)c1n2Cc1cccc(C)c1`, the GI50 was 20 µM (inactive) in the assay with SK-MEL-2; 60.4 µM (inactive) in the assay on MDA-N; 21.2 µM (inactive) in the assay with IGROV-1; 45.4 µM (inactive) in the assay with UACC-62; > 100 µM (inactive) with SN12C; 31.8 µM (inactive) with ACHN. The GI50 with Malme-3M was 77.6 µM (inactive); with BT-549, 35.1 µM (inactive); in the assay on HCC 2998, 22.8 µM (inactive); with SR it was 24.3 µM (inactive); with UO-31, 40 µM (inactive); in the assay with NCI-H460, 30.3 µM (inactive). The GI50 is 36.2 µM (inactive) in the assay on 786-0; 34.6 µM (inactive) in the assay on MOLT-4; 67 µM (inactive) with SNB-19; > 100 µM (inactive) in the assay with NCI-H226; 33.2 µM (inactive) in the assay with HCT-116; 15.8 µM (inactive) in the assay on EKVX. Also, the GI50 in the assay on SK-OV-3 is 20.4 µM (inactive); in the assay on T47D, 21.8 µM (inactive).

As to `COC(=O)c1c(O)ccc2c1c1cc3ccccc3c(O)c1n2Cc1ccccc1Cl`, the GI50 was 17.7 µM (inactive) in the assay on SK-MEL-2; 23.7 µM (inactive) with MDA-N; 19.4 µM (inactive) with IGROV-1; 23.4 µM (inactive) with UACC-62; 32.7 µM (inactive) with SN12C; 22.4 µM (inactive) in the assay with ACHN. Moreover, the GI50 with Malme-3M is 30.3 µM (inactive); with BT-549 it was 32.8 µM (inactive); in the assay on HCC 2998, 20 µM (inactive); in the assay on SR, 25.4 µM (inactive); with UO-31, 22.1 µM (inactive); with NCI-H460, 18.2 µM (inactive). Besides, the GI50 with 786-0 is 22.3 µM (inactive); with MOLT-4, 16.6 µM (inactive); with SNB-19, 59.4 µM (inactive); in the assay with NCI-H226 it was 31.8 µM (inactive); with HCT-116, 13.2 µM (inactive); in the assay with EKVX it was 25.8 µM (inactive). Also, the GI50 with SK-OV-3 was 12.9 µM (inactive); in the assay on T47D, 12.2 µM (inactive).

As for `COc1ccc(/C=C/C(=O)Oc2ccccc2OC)cc1`, the GI50 is 39 µM (inactive) in the assay with SK-MEL-2; 36.4 µM (inactive) in the assay on MDA-N; 5.2 µM (inactive) with IGROV-1; 54.5 µM (inactive) with UACC-62; 13.9 µM (inactive) in the assay with SN12C; > 27.6 µM (inactive) in the assay on ACHN. Also, the GI50 is 56.9 µM (inactive) with Malme-3M; 67 µM (inactive) with BT-549; 16.6 µM (inactive) in the assay with HCC 2998; 6.73 µM (inactive) in the assay on SR; 37.7 µM (inactive) in the assay on UO-31; > 100 µM (inactive) in the assay on NCI-H460. For the same molecule, the GI50 in the assay with 786-0 is 14 µM (inactive); in the assay on MOLT-4 it was 1.57 µM (inactive); in the assay on SNB-19, 50.2 µM (inactive); in the assay with NCI-H226, > 96.6 µM (inactive); with HCT-116 it was 2.91 µM (inactive); in the assay on EKVX, 37.8 µM (inactive). The GI50 was > 100 µM (inactive) with SK-OV-3 and 31.5 µM (inactive) with T47D.

With `O=C(c1ccccc1)C1C(c2ccccc2[N+](=O)[O-])N1C1CCCCC1` (stereo not given), the GI50 is 5.21 µM (inactive) in the assay with SK-MEL-2; 2.06 µM (inactive) in the assay with MDA-N; 4.25 µM (inactive) in the assay with IGROV-1; 7.4 µM (inactive) in the assay on UACC-62; 4.39 µM (inactive) in the assay with SN12C; 1.94 µM (inactive) in the assay on ACHN. For the same molecule, the GI50 in the assay on Malme-3M was 12.4 µM (inactive); in the assay on BT-549, 11.6 µM (inactive); with HCC 2998 it was 6.79 µM (inactive); in the assay with SR, 0.634 µM (active); with UO-31, 6.61 µM (inactive); with NCI-H460, 9.2 µM (inactive). Also, the GI50 is 1.99 µM (inactive) with 786-0; 2.43 µM (inactive) with MOLT-4; 16.3 µM (inactive) with SNB-19; 17 µM (inactive) with NCI-H226; 1.8 µM (inactive) in the assay with HCT-116; 13.7 µM (inactive) with EKVX. The GI50 with SK-OV-3 was 22.1 µM (inactive); in the assay with T47D, 2.51 µM (inactive).

For `COc1cc(C2c3cc4c(cc3OC3(OC)COC(=O)C23)OCO4)cc(OC)c1OC` (stereo not given), the GI50 with SK-MEL-2 was 0.771 µM (active); with MDA-N, 0.075 µM (active); in the assay on IGROV-1, 0.425 µM (active); in the assay on UACC-62, 0.311 µM (active); with SN12C it was 0.478 µM (active); in the assay with ACHN it was 0.618 µM (active). The GI50 is 0.605 µM (active) in the assay on Malme-3M; 1.7 µM (inactive) with BT-549; 0.325 µM (active) in the assay on HCC 2998; 0.272 µM (active) in the assay on SR; 0.675 µM (active) in the assay with UO-31; 0.38 µM (active) in the assay with NCI-H460. The GI50 with 786-0 is 0.353 µM (active); in the assay on MOLT-4 it was 0.456 µM (active); with SNB-19 it was 1.64 µM (inactive); with NCI-H226, 0.649 µM (active); in the assay on HCT-116, 0.267 µM (active); in the assay with EKVX, 0.343 µM (active). In addition, the GI50 in the assay on SK-OV-3 was 0.348 µM (active); in the assay on T47D, > 100 µM (inactive).

In the case of `NC(=O)c1cccc(/N=c2\oc3ccc(Br)cc3cc2-c2nc3ccccc3[nH]2)c1`, the GI50 in the assay with SK-MEL-2 was 19.9 µM (inactive); in the assay on MDA-N, 17.7 µM (inactive); with IGROV-1 it was 17.9 µM (inactive); with UACC-62 it was 14.4 µM (inactive); in the assay with SN12C, 17.4 µM (inactive); with ACHN, 17.3 µM (inactive). For the same molecule, the GI50 in the assay with Malme-3M was 22.5 µM (inactive); in the assay with BT-549 it was 13.6 µM (inactive); with HCC 2998, 15.3 µM (inactive); with SR, 5.73 µM (inactive); with UO-31 it was 7.76 µM (inactive); with NCI-H460 it was 15.5 µM (inactive). Moreover, the GI50 is 14.5 µM (inactive) in the assay with 786-0; 12.5 µM (inactive) in the assay with MOLT-4; 14.8 µM (inactive) in the assay on SNB-19; 0.075 µM (active) in the assay on NCI-H226; 16.4 µM (inactive) in the assay with HCT-116; 13.9 µM (inactive) in the assay on EKVX. The GI50 is 16.4 µM (inactive) with SK-OV-3 and 10 µM (inactive) in the assay with T47D.

Turning to `O=c1n(CCO)nc2n1CCCN2`, the GI50 in the assay with SK-MEL-2, with MDA-N, in the assay with IGROV-1, in the assay with UACC-62, in the assay on SN12C and in the assay on ACHN was > 100 µM (inactive) in each case. In addition, the GI50 in the assay with Malme-3M, in the assay on BT-549, in the assay with HCC 2998, with SR, in the assay with UO-31 and in the assay on NCI-H460 was > 100 µM (inactive) in each case. The GI50 with 786-0, with MOLT-4, in the assay with SNB-19, in the assay with NCI-H226, in the assay on HCT-116 and in the assay with EKVX was > 100 µM (inactive) in each case. For the same molecule, the GI50 with SK-OV-3 and in the assay on T47D was > 100 µM (inactive) each time.

Consider `Cc1nc(O)nc2nc3ccc(Cl)cc3c(N(CCO)CCO)c12`, for which the GI50 with SK-MEL-2, in the assay with MDA-N, with IGROV-1, in the assay with UACC-62, in the assay on SN12C and with ACHN was > 100 µM (inactive) throughout. The GI50 with Malme-3M was > 100 µM (inactive); in the assay on BT-549 it was > 100 µM (inactive); in the assay on HCC 2998, > 100 µM (inactive); in the assay with SR, > 100 µM (inactive); with UO-31 it was 73.6 µM (inactive); in the assay on NCI-H460, 48.2 µM (inactive). For the same molecule, the GI50 was > 100 µM (inactive) in the assay on 786-0; > 100 µM (inactive) in the assay on MOLT-4; > 100 µM (inactive) in the assay with SNB-19; 26.8 µM (inactive) with NCI-H226; > 100 µM (inactive) with HCT-116; 0.762 µM (active) in the assay with EKVX. The GI50 with SK-OV-3 and in the assay on T47D was > 100 µM (inactive) throughout.

As to `CN(C)CCNc1ccc2c(=O)n(CCN(C)C)c(=O)n3c4ccc([N+](=O)[O-])cc4c(=O)c1c23`, the GI50 in the assay with SK-MEL-2 is 0.397 µM (active); in the assay with MDA-N, 0.287 µM (active); in the assay with IGROV-1, 0.126 µM (active); with UACC-62, 1.24 µM (inactive); in the assay with SN12C, 0.197 µM (active); in the assay on ACHN, 0.146 µM (active). For the same molecule, the GI50 in the assay on Malme-3M is 0.344 µM (active); in the assay with BT-549, 0.655 µM (active); in the assay on HCC 2998 it was 0.387 µM (active); in the assay with SR it was 0.0815 µM (active); in the assay with UO-31, 0.262 µM (active); in the assay on NCI-H460, 0.0838 µM (active). Besides, the GI50 was 0.294 µM (active) with 786-0; < 0.0141 µM (active) with MOLT-4; 0.452 µM (active) with SNB-19; 0.312 µM (active) with NCI-H226; 0.0769 µM (active) with HCT-116; 0.55 µM (active) in the assay with EKVX. For the same molecule, the GI50 in the assay on SK-OV-3 is 0.76 µM (active); in the assay on T47D, 0.653 µM (active).
